In DBAASP:
Values after ≈ are worked out from the molar mass of the structure shown. Values joined by “and” are separate entries in the source; they are usually repeats but may differ in a detail not shown here. Equal entries are not always repeated. Each block holds one compound with its values, some of them ahead of it.

Columns and labels:
Test in all cases: ≥ marks a high value that may be exact or a test limit, other limits are often not marked, values filed in µg/mL are converted to µM
[1] = tested on: Candida albicans ATCC 200955
[2] = tested on: Zymomonas mobilis ATCC 10988
[3] = tested on: Bacillus subtilis DELTA
[4] = tested on: Escherichia coli DH5alpha
[5] = tested on: Pseudomonas aeruginosa ATCC 27853
[6] = tested on: Enterococcus faecium ATCC 700221
[7] = tested on: Escherichia coli ATCC 25922
[8] = tested on: Staphylococcus aureus ATCC 33591
[9] = tested on: Candida parapsilosis
[10] = tested on: Xanthomonas campestris pv. Vesicatoria 2133-2
[11] = tested on: Erwinia amylovora PMV 6076
[12] = tested on: Pseudomonas syringae pv. syringae EPS 94
[13] = tested on: Listeria monocytogenes ATCC 35152
[14] = tested on: Staphylococcus aureus ATCC 25923
[15] = tested on: Klebsiella pneumoniae ATCC 13883
[16] = tested on: Bacillus anthracis UM23-CL2
[17] = tested on: Burkholderia cepacia J2540
[18] = tested on: Staphylococcus aureus 22401
[19] = tested on: Escherichia coli 44102
[20] = tested on: Staphylococcus epidermidis ATCC 12228
[21] = tested on: Salmonella enterica subsp. enterica serovar Typhi DMST 22842
[22] = tested on: Vibrio anguillarum C312
[23] = tested on: Edwardsiella tarda TX1
[24] = tested on: Staphylococcus aureus
[25] = tested on: Micrococcus luteus
[26] = tested on: Pseudomonas aeruginosa LCCI
[27] = tested on: Staphylococcus aureus ATCC 29213
[28] = tested on: Pseudomonas aeruginosa ATCC 21625
[29] = tested on: Pseudomonas aeruginosa LCGE
[30] = tested on: Salmonella enterica subsp. enterica serovar Typhimurium C77-31
[31] = tested on: Pseudomonas aeruginosa ATCC 21630
[32] = tested on: Pseudomonas aeruginosa LC
[33] = tested on: Pseudomonas aeruginosa LCCE
[34] = tested on: Pseudomonas aeruginosa ATCC 10419
[35] = tested on: Staphylococcus aureus LAC
[36] = tested on: Pseudomonas aeruginosa PAO1
[37] = tested on: Staphylococcus aureus ATCC 43300

Structure (SMILES): CC(C)C[C@H](NC(=O)[C@@H](NC(=O)[C@H](CCC(N)=O)NC(=O)[C@H](CCCCN)NC(=O)[C@H](Cc1cnc[nH]1)NC(=O)[C@H](CC(C)C)NC(=O)[C@H](C)NC(=O)[C@@H](NC(=O)[C@H](CC(C)C)NC(=O)[C@H](CCCCN)NC(=O)[C@H](CC(C)C)NC(=O)[C@@H](N)CCCCN)C(C)C)C(C)C)C(N)=O [KLKLVALHKQVL]
MIC [13]: 14.4 µM (≈ 20 µg/mL) | MIC [14]: 7.2 µM (≈ 9.99 µg/mL) | MIC [5]: 18 µM (≈ 25 µg/mL) | MIC [7]: 10.8 µM (≈ 15 µg/mL) | MIC [15]: 18 µM (≈ 25 µg/mL)

Structure (SMILES): CC[C@H](C)[C@H](NC(=O)[C@H](CCCCN)NC(=O)[C@H](CCCCN)NC(=O)[C@H](Cc1ccccc1)NC(=O)[C@H](CC(C)C)NC(=O)[C@H](CCCCN)NC(=O)[C@H](Cc1c[nH]c2ccccc12)NC(=O)[C@@H](N)CCCCN)C(=O)N[C@@H](C)C(=O)N[C@@H](CCCCN)C(=O)N[C@@H](CCCCN)C(=O)N[C@@H](Cc1ccccc1)C(=O)N[C@@H](C)C(=O)N[C@@H](CCCCN)C(=O)N[C@@H](C)C(=O)N[C@@H](Cc1ccccc1)C(=O)N[C@H](C(=O)N[C@@H](C)C(=O)N[C@@H](CCC(=O)O)C(=O)N[C@H](C(=O)N[C@@H](CCSC)C(=O)O)[C@@H](C)CC)C(C)C [KWKLFKKIAKKFAKAFVAEIM]
MIC [16]: 24.7 µM and ≥ 49.5 µM | MIC [17]: 12.4 µM (≈ 31.3 µg/mL)

Structure (SMILES): CC[C@H](C)[C@H](NC(=O)[C@H](CCC(=O)O)NC(=O)[C@H](C)NC(=O)[C@H](Cc1ccccc1)NC(=O)[C@@H](N)CC(N)=O)C(=O)N[C@@H](Cc1ccccc1)C(=O)N[C@@H](C)C(=O)N[C@@H](C)C(=O)N[C@H](C(=O)N[C@@H](CC(N)=O)C(=O)N[C@@H](CCCCN)C(=O)N[C@@H](CC(C)C)C(=O)N[C@H](C(=O)N[C@@H](CCCCN)C(=O)N[C@@H](CCC(N)=O)C(=O)NCC(=O)N[C@H](C(=O)N[C@H](C(=O)N[C@@H](CCCCN)C(=O)NCC(=O)O)C(C)C)C(C)C)[C@@H](C)CC)C(C)C [NFAEIFAAVNKLIKQGVVKG]
MIC [18]: ≥ 50 µM | MIC [19]: 25 µM (≈ 53.7 µg/mL)

Structure (SMILES): CC[C@H](C)[C@H](NC(=O)[C@H](Cc1cnc[nH]1)NC(=O)[C@H](CO)NC(=O)[C@@H](N)CCC(N)=O)C(=O)N[C@@H](CO)C(=O)N[C@@H](CC(C)C)C(=O)N[C@H]1CSSC[C@@H](C(=O)N[C@@H](CCCCN)C(=O)N[C@@H](Cc2ccccc2)C(=O)O)NC(=O)[C@@H]2CSSC[C@H](NC(=O)[C@H](Cc3c[nH]c4ccccc34)NC(=O)[C@H](CCCN=C(N)N)NC1=O)C(=O)N[C@H]1CSSC[C@H](NC(=O)CNC(=O)[C@H](CCCCN)NC(=O)[C@H](CC(N)=O)NC(=O)[C@H](C)NC(=O)[C@H](CCCCN)NC(=O)[C@@H]3CSSC[C@H](NC(=O)[C@H](CC(N)=O)NC1=O)C(=O)N3)C(=O)NCC(=O)N[C@@H](Cc1ccccc1)C(=O)N2 [QSHISLCRWCCNCCKANKGCGFCCKF]
MIC [22]: 5.66 µM (≈ 16.6 µg/mL) | MIC [23]: 2.83 µM (≈ 8.3 µg/mL) | MIC [24]: 2.83 µM (≈ 8.3 µg/mL) | MIC [25]: 1.41 µM (≈ 4.15 µg/mL)

More lines, now with the values ahead:

MIC [1]: 9.5 µM (≈ 11.1 µg/mL) | MIC [2]: 5.97 µM (≈ 6.99 µg/mL) | MIC [3]: 25.6 µM (≈ 30 µg/mL) | MIC [4]: ≥ 256 µM | MIC [5]: 28.4 µM (≈ 33.3 µg/mL) | MIC [6]: 9.5 µM (≈ 11.1 µg/mL) | MIC [7]: 9.5 µM (≈ 11.1 µg/mL) | MIC [8]: 9.5 µM (≈ 11.1 µg/mL) | MIC [9]: ≥ 34.1 µM
Structure (SMILES): CC[C@H](C)[C@H](NC(=O)[C@H](Cc1ccccc1)NC(=O)[C@H](CCCCN)NC(=O)[C@H](CC(C)C)NC(=O)[C@H](CC(C)C)NC(=O)CN)C(=O)N[C@@H](CCCCN)C(=O)N[C@@H](CCCCN)C(=O)N[C@@H](CC(C)C)C(=O)N[C@@H](CC(C)C)C(N)=O [GLLKFIKKLL]

MIC [10]: 3.54 µM (≈ 6.07 µg/mL) | MIC [11]: 14.1 µM (≈ 24.3 µg/mL) | MIC [12]: 14.1 µM (≈ 24.3 µg/mL)
Structure (SMILES): CC[C@H](C)[C@H](NC(=O)[C@H](CCCCN)NC(=O)[C@H](CCCCN)NC(=O)[C@H](Cc1ccccc1)NC(=O)[C@H](CC(C)C)NC(=O)[C@H](CCCCN)NC(=O)[C@@H](N)CCCCN)C(=O)N[C@@H](CC(C)C)C(=O)N[C@@H](CCCCN)C(=O)N[C@@H](Cc1ccc(O)cc1)C(=O)N[C@@H](CC(C)C)C(=O)N[C@@H](C)C(=O)NCC(=O)N1CCC[C@H]1C(=O)N[C@@H](C)C(=O)O [KKLFKKILKYLAGPA]

MIC [14]: > 35.7 µM | MIC [20]: 9.03 µM (≈ 23 µg/mL) | MIC [7]: 18.1 µM (≈ 46 µg/mL) | MIC [21]: ≥ 35.7 µM
Structure (SMILES): CC(C)[C@H](NC(=O)CNC(=O)[C@@H](N)CC(N)=O)C(=O)N[C@@H](CCC(N)=O)C(=O)N1CCC[C@H]1C(=O)N[C@@H](CCCCN)C(=O)N[C@@H](Cc1ccc(O)cc1)C(=O)N[C@@H](CCCN=C(N)N)C(=O)N[C@@H](Cc1c[nH]c2ccccc12)C(=O)N[C@@H](Cc1c[nH]c2ccccc12)C(=O)N[C@@H](CCCN=C(N)N)C(=O)N[C@@H](Cc1c[nH]c2ccccc12)C(=O)N[C@@H](Cc1c[nH]c2ccccc12)C(=O)N[C@@H](CCCN=C(N)N)C(=O)N[C@@H](CCCN=C(N)N)C(=O)N[C@@H](Cc1c[nH]c2ccccc12)C(=O)N[C@@H](Cc1c[nH]c2ccccc12)C(=O)O [NGVQPKYRWWRWWRRWW]

MIC [26]: ≥ 256 µM | MIC [27]: 256 µM (≈ 562 µg/mL) | MIC [20]: 32 µM (≈ 70.2 µg/mL) | MIC [5]: 256 µM (≈ 562 µg/mL) | MIC [28]: ≥ 256 µM | MIC [29]: ≥ 256 µM | MIC [30]: ≥ 256 µM | MIC [31]: ≥ 256 µM | MIC [7]: 128 µM (≈ 281 µg/mL) | MIC [32]: ≥ 64 µM | MIC [33]: ≥ 256 µM | MIC [34]: ≥ 256 µM
Structure (SMILES): CC[C@H](C)[C@H](NC(=O)[C@H](CCCCN)NC(=O)[C@H](CCCCN)NC(=O)[C@H](CC(C)C)NC(=O)[C@H](CCCN=C(N)N)NC(=O)[C@H](CCCCN)NC(=O)[C@H](CCCN=C(N)N)NC(=O)[C@@H](NC(=O)[C@H](CCCCN)NC(=O)[C@H](CCCCN)NC(=O)[C@H](CCCN=C(N)N)NC(=O)[C@H](CC(C)C)NC(=O)[C@H](CCCN=C(N)N)NC(=O)[C@H](CCCN=C(N)N)NC(=O)[C@H](Cc1ccccc1)NC(=O)[C@@H](N)CCCN=C(N)N)[C@@H](C)CC)C(N)=O [RFRRLRKKIRKRLKKI]

MIC [35]: 23.1 µM (≈ 32 µg/mL) | MIC [36]: 15.6 µM (≈ 21.7 µg/mL) | MIC [37]: 31.3 µM (≈ 43.4 µg/mL) | MIC [7]: 46.1 µM (≈ 64 µg/mL)
Structure (SMILES): NC(N)=NCCC[C@H](NC(=O)[C@H](CCCN=C(N)N)NC(=O)[C@H](CCCN=C(N)N)NC(=O)[C@@H](N)CCCN=C(N)N)C(=O)N[C@@H](Cc1c[nH]c2ccccc12)C(=O)N[C@@H](Cc1c[nH]c2ccccc12)C(=O)N[C@@H](Cc1c[nH]c2ccccc12)C(=O)N[C@@H](Cc1c[nH]c2ccccc12)C(=O)O [RRRRWWWW]
